The source made the active and inactive calls. The calls are words filed in the database; no cut-off is given here.

A word on the IC50: it is the concentration that gives 50% inhibition.

The first assay concerns HT-29. Kind of assay: Induction of apoptosis in human HT-29 cells expressing BRAF mutant assessed as depolarization of mitochondrial membrane after 24 hrs by flow cytometry. Type of assay: functional, cell-based. Particulars: Homo sapiens, HT-29, 24 h; read-out: IC50. For orientation: A flow cytometer gives signals particle by particle.
Regarding `Cc1ccccc1Nc1ncnc2sc3ccccc3c12`, the IC50 is 120 µM.
Same read-out and setting: in the case of `Cc1ccccc1Nc1ncnc2c1sc1ccccc12` it was 127 µM; in that of `COc1ccc(Nc2ncnc3sc4ccccc4c23)cc1`, 117 µM; in that of `c1ccc(CNc2ncnc3sc4ccccc4c23)cc1`, 126 µM.

The same assay, now with this note: ht-29.
Consider `Cc1ccccc1CNc1ncnc2sc3ccccc3c12`, for which the IC50 entry is given as “Not Active”.
In the case of `c1ccc(CNc2ncnc3c2sc2ccccc23)cc1`, the IC50 entry was “Not Active”.
In the case of `CN(C)c1ncnc2sc3ccccc3c12`, the IC50 result is “Not Active”.
The same measure, in the same setting: in the case of `c1ccc(Nc2ncnc3c2sc2ccccc23)cc1` it was “Not Active”.
On the same count and under the same terms, the result for `COc1ccccc1Nc1ncnc2sc3ccccc3c12` reads “Not Active”; that for `c1ccc(Nc2ncnc3sc4ccccc4c23)cc1`, “Not Active”.
Regarding `COc1ccccc1CNc1ncnc2c1sc1ccccc12`, the IC50 entry is recorded as “Not Active”.
The same measure, in the same setting: the result for `COc1ccc(CNc2ncnc3c2sc2ccccc23)cc1` reads “Not Active”.
On the same count and under the same terms, in the case of `Cc1ccccc1CNc1ncnc2c1sc1ccccc12` it was “Not Active”.

Another assay concerns HT-29. Put plainly: Induction of apoptosis in human HT-29 cells expressing BRAF mutant assessed as activation of caspase-3 at 200 uM after 10 mins by flow cytometry relative to control. The class given is functional.
Settings: not given
On to `Cc1ccccc1Nc1ncnc2sc3ccccc3c12`, for which the “fold change (FC)” value was determined as 10.
Same read-out and setting: the result for `COc1ccc(Nc2ncnc3sc4ccccc4c23)cc1` reads 10.
`COc1ccccc1Nc1ncnc2sc3ccccc3c12`: the result was Active.
Still for that read-out and setting: the result for `c1ccc(Nc2ncnc3sc4ccccc4c23)cc1` reads “Active”.

For another assay, the system named is HeLa. Put plainly: Induction of apoptosis in human HeLa cells expressing wild type KRAS and BRAF assessed as depolarization of mitochondrial membrane after 24 hrs by flow cytometry. The class given is functional, cell-based. Particulars: Homo sapiens, HeLa, 24 h; read-out: IC50.
For the molecule `Cc1ccccc1CNc1ncnc2sc3ccccc3c12`, the IC50 is above 130 µM.
Consider `Cc1ccccc1Nc1ncnc2sc3ccccc3c12`, for which the IC50 came out at 129 µM.
The same measure, in the same setting: the result for `c1ccc(CNc2ncnc3c2sc2ccccc23)cc1` reads 105 µM.
On the same count and under the same terms, the result for `Cc1ccccc1Nc1ncnc2c1sc1ccccc12` reads 77.7 µM.
Same read-out and setting: the result for `CN(C)c1ncnc2sc3ccccc3c12` reads 102 µM.
As for `COc1ccc(Nc2ncnc3sc4ccccc4c23)cc1`, the IC50 was found to be 109 µM.
The same measure, in the same setting: the result for `c1ccc(CNc2ncnc3sc4ccccc4c23)cc1` reads 113 µM; that for `COc1ccccc1Nc1ncnc2sc3ccccc3c12`, above 130 µM.
On the same count and under the same terms, in the case of `c1ccc(Nc2ncnc3sc4ccccc4c23)cc1` it was above 130 µM; in that of `COc1ccccc1CNc1ncnc2c1sc1ccccc12`, 129 µM; in that of `COc1ccc(CNc2ncnc3c2sc2ccccc23)cc1`, 118 µM.

The same assay, now with this note: hela.
In the case of `c1ccc(Nc2ncnc3c2sc2ccccc23)cc1`, the IC50 entry was “Not Active”.
With `Cc1ccccc1CNc1ncnc2c1sc1ccccc12`, the IC50 entry is “Not Active”.

Another assay has as its system HCT-116. Kind of assay: Induction of apoptosis in human HCT116 cells expressing KRAS mutant assessed as depolarization of mitochondrial membrane after 24 hrs by flow cytometry. The class given is functional, cell-based. Particulars: Homo sapiens, HCT-116, 24 h; read-out: IC50.
`Cc1ccccc1Nc1ncnc2sc3ccccc3c12`: the IC50 is 101 µM.
Same read-out and setting: the result for `Cc1ccccc1Nc1ncnc2c1sc1ccccc12` reads 121 µM; that for `COc1ccc(Nc2ncnc3sc4ccccc4c23)cc1`, 92 µM; that for `c1ccc(CNc2ncnc3sc4ccccc4c23)cc1`, above 130 µM.

The assay is the same for the next values; noted with them: hct-116.
As for `Cc1ccccc1CNc1ncnc2sc3ccccc3c12`, the IC50 result is “Not Active”.
With `c1ccc(CNc2ncnc3c2sc2ccccc23)cc1`, the IC50 result is “Not Active”.
On the same count and under the same terms, the result for `CN(C)c1ncnc2sc3ccccc3c12` reads “Not Active”; that for `c1ccc(Nc2ncnc3c2sc2ccccc23)cc1`, “Not Active”.
The same measure, in the same setting: in the case of `COc1ccccc1Nc1ncnc2sc3ccccc3c12` it was “Not Active”; in that of `c1ccc(Nc2ncnc3sc4ccccc4c23)cc1`, “Not Active”; in that of `COc1ccccc1CNc1ncnc2c1sc1ccccc12`, “Not Active”.
Still for that read-out and setting: the result for `COc1ccc(CNc2ncnc3c2sc2ccccc23)cc1` reads “Not Active”.
Turning to `Cc1ccccc1CNc1ncnc2c1sc1ccccc12`, the IC50 entry is reported as “Not Active”.

In another assay the test system is HT-29. Put plainly: Induction of apoptosis in human HT-29 cells expressing BRAF mutant assessed as cell death at 200 uM after 10 mins by flow cytometry. The class given is functional, cell-based.
Settings: not given
Take `Cc1ccccc1Nc1ncnc2sc3ccccc3c12`: the outcome was Active.
For the molecule `COc1ccc(Nc2ncnc3sc4ccccc4c23)cc1`, the result was Active.

These data come from ChEMBL document CHEMBL2157913, “Synthesis and evaluation of apoptosis induction of thienopyrimidine compounds on KRAS and BRAF mutated colorectal cancer cell lines” (Bioorg Med Chem, 2012).
